Laboratory results reported in US20060194853A1, “Alkyl benzamides” (priority 2004, published 2006).
pIC50: −log10 of the molar value.

Legend:
Type in all cases: cell-based
[1] = tested on: Trichomonas vaginalis UCH-1; test: in vitro growth inhibition of Trichomonas vaginalis; settings: for pIC50: in vitro, concentration required to inhibit 50% of the growth of the organisms; for effective against T. vaginalis: result in words
[2] = tested on: Giardia intestinalis JKH-1; test: in vitro growth inhibition of Giardia intestinalis; settings: for pIC50: Giardia duodenalis, in vitro, concentration required to inhibit 50% of the growth of the organisms; for effective against G. intestinalis: result in words
Herpes Varicella A = test: activity against Herpes Varicella (VZV); settings: result in words
Influenza A = test: activity against Influenza A; settings: result in words
Influenza B = test: activity against Influenza B; settings: result in words
Helicobacter pylori = test: activity against Helicobacter pylori; settings: result in words
P. falciparum = test: activity against P. falciparum; settings: result in words
Campylobacter jejuni = test: activity against Campylobacter jejuni; settings: result in words

O=C(Nc1ncc([N+](=O)[O-])s1)c1ccccc1O [Compound A, 2-hydroxy-N-(5-nitro-2-thiazolyl) benzamide, reference compound]
pIC50 [1]: 5.82

CC(=O)Oc1ccccc1C(=O)Nc1ncc([N+](=O)[O-])s1 [Compound B, 2-acetyloxy-N-(5-nitro-2-thiazolyl)benzamide, reference compound]
pIC50 ([1]; Trichomonas vaginalis, UCH1): 6.22
pIC50 [2]: 4.90

CC(=O)Oc1c(C)cccc1C(=O)Nc1ncc([N+](=O)[O-])s1 [Compound D, 2-acetyloxy-3-methyl-N-(5-nitro-2-thiazolyl) benzamide]
effective against Herpes VZV (Herpes Varicella A): effective
effective against Influenza A (Influenza A): effective
effective against Influenza B (Influenza B): effective
effective against H. Pylori (Helicobacter pylori): effective
effective against P. falciparum (P. falciparum): effective
effective against C. jejuni (Campylobacter jejuni): effective
pIC50 ([1]; Trichomonas vaginalis, UCH1): 5.09
effective against T. vaginalis [1]: effective
pIC50 [2]: 6.25
potency against Giardia intestinalis compared to nitazoxanide ([2]; comparison in words, from TABLE I): significantly more potent than nitazoxanide
effective against G. intestinalis [2]: effective

CC(=O)Oc1cc(C)ccc1C(=O)Nc1ncc([N+](=O)[O-])s1 [Compound F, 2-acetyloxy-4-methyl-N-(5-nitro-2-thiazolyl) benzamide]
effective against T. vaginalis [1]: effective
effective against G. intestinalis [2]: effective

CC(=O)Oc1ccc(C)cc1C(=O)Nc1ncc([N+](=O)[O-])s1 [Compound H, 2-acetyloxy-5-methyl-N-(5-nitro-2-thiazolyl) benzamide]
effective against T. vaginalis [1]: effective
effective against G. intestinalis [2]: effective
